According to patent US6620828B2, “Thiazole compounds and pharmaceutical compositions for inhibiting protein kinases and methods for their use” (Agouron Pharmaceuticals, Inc., priority 1999, dated 2003):

System: human umbilical vein endothelial cells (HUVEC)
Test: HUVEC proliferation assay
Assay type: cell-based
Conditions: Homo sapiens, HUVEC, Table I screening results; 150 nM; crude combinatorial amide library
Summary of the method: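 Exponentially growing HUVEC were serum-starved 24 h (F12K + 1% FBS), pre-treated 1 h with compound (0.1% DMSO final), then stimulated with 6 ng/ml VEGF. Proliferation was read 72 h later by MTT reduction (A595). IC50 came from seven 0.5-log concentrations in triplicate; screens gave % inhibition relative to VEGF-only and starved wells.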

Question: With `COc1cc(Nc2nc(N)c(-c3nc(-c4cccc(NC(=O)c5ccc(-c6ccccc6)cc5)c4)cs3)s2)cc(OC)c1OC` as the compound, how does the inhibition at 0.15 µM read?
Answer: Its inhibition at 0.15 µM is -32%.

Question: For `COc1cc(Nc2nc(N)c(-c3nc(-c4cccc(NC(=O)CC5CCCCC5)c4)cs3)s2)cc(OC)c1OC`, which inhibition at 0.15 µM is on record?
Answer: Its inhibition at 0.15 µM is 3%.

Question: For `COc1cc(Nc2nc(N)c(-c3nc(-c4cccc(NC(=O)c5cc6cc(Cl)ccc6[nH]5)c4)cs3)s2)cc(OC)c1OC`, which inhibition at 0.15 µM is on record?
Answer: Its inhibition at 0.15 µM is 0%.

Question: With `COc1cc(Nc2nc(N)c(-c3nc(-c4cccc(NC(=O)CCC5CCCCC5)c4)cs3)s2)cc(OC)c1OC` as the compound, how does the inhibition at 0.15 µM read?
Answer: The inhibition at 0.15 µM was 8%.

Question: `COc1cc(Nc2nc(N)c(-c3nc(-c4cccc(NC(=O)/C=C/c5ccccc5)c4)cs3)s2)cc(OC)c1OC` was tested. Which inhibition at 0.15 µM did it give?
Answer: Its inhibition at 0.15 µM is 36%.

Question: How did the inhibition at 0.15 µM turn out when `COc1cc(Nc2nc(N)c(-c3nc(-c4cccc(NC(=O)CC(c5ccccc5)c5ccccc5)c4)cs3)s2)cc(OC)c1OC` was run?
Answer: Its inhibition at 0.15 µM is 10%.

Question: `COc1cc(Nc2nc(N)c(-c3nc(-c4cccc(NC(=O)c5ccoc5)c4)cs3)s2)cc(OC)c1OC` was tested. Which inhibition at 0.15 µM did it give?
Answer: The inhibition at 0.15 µM was 7%.

Question: For `COc1cc(Nc2nc(N)c(-c3nc(-c4cccc(NC(=O)c5ccco5)c4)cs3)s2)cc(OC)c1OC`, which inhibition at 0.15 µM is on record?
Answer: Its inhibition at 0.15 µM is 15%.

Question: With `COc1cc(Nc2nc(N)c(-c3nc(-c4cccc(NC(=O)c5ccc6c(c5)C(=O)c5ccccc5-6)c4)cs3)s2)cc(OC)c1OC` as the compound, how does the inhibition at 0.15 µM read?
Answer: Its inhibition at 0.15 µM is -4%.

Question: `COc1cc(Nc2nc(N)c(-c3nc(-c4cccc(NC(=O)CCc5c[nH]c6ccccc56)c4)cs3)s2)cc(OC)c1OC` was tested. Which inhibition at 0.15 µM did it give?
Answer: The inhibition at 0.15 µM was -4%.

Question: `COc1cc(CC(=O)Nc2cccc(-c3csc(-c4sc(Nc5cc(OC)c(OC)c(OC)c5)nc4N)n3)c2)cc(OC)c1OC` was tested. Which inhibition at 0.15 µM did it give?
Answer: Its inhibition at 0.15 µM is 29%.

Question: How did the inhibition at 0.15 µM turn out when `COc1cc(Nc2nc(N)c(-c3nc(-c4cccc(NC(=O)Cc5ccc(F)cc5)c4)cs3)s2)cc(OC)c1OC` was run?
Answer: Its inhibition at 0.15 µM is -7%.

Question: For `COc1cc(Nc2nc(N)c(-c3nc(-c4cccc(NC(=O)CCOc5ccccc5)c4)cs3)s2)cc(OC)c1OC`, which inhibition at 0.15 µM is on record?
Answer: The inhibition at 0.15 µM was 11%.

Question: With `COc1cc(Nc2nc(N)c(-c3nc(-c4cccc(NC(=O)/C=C/c5ccc(Cl)cc5)c4)cs3)s2)cc(OC)c1OC` as the compound, how does the inhibition at 0.15 µM read?
Answer: Its inhibition at 0.15 µM is 40%.

Question: How did the inhibition at 0.15 µM turn out when `COc1ccccc1/C=C\C(=O)Nc1cccc(-c2csc(-c3sc(Nc4cc(OC)c(OC)c(OC)c4)nc3N)n2)c1` was run?
Answer: Its inhibition at 0.15 µM is 53%.

Question: With `COc1cc(Nc2nc(N)c(-c3nc(-c4cccc(NC(=O)C(Cc5ccccc5)c5ccccc5)c4)cs3)s2)cc(OC)c1OC` (stereo not shown) as the compound, how does the inhibition at 0.15 µM read?
Answer: The inhibition at 0.15 µM was 11%.

Question: For `COc1cc(Nc2nc(N)c(-c3nc(-c4cccc(NC(=O)CCC5CCCC5)c4)cs3)s2)cc(OC)c1OC`, which inhibition at 0.15 µM is on record?
Answer: The inhibition at 0.15 µM was 85%.

Question: For `COc1cc(Nc2nc(N)c(-c3nc(-c4cccc(NC(=O)C(=O)Cc5ccccc5)c4)cs3)s2)cc(OC)c1OC`, which inhibition at 0.15 µM is on record?
Answer: Its inhibition at 0.15 µM is 20%.

Question: For `C/C=C/CC(=O)Nc1cccc(-c2csc(-c3sc(Nc4cc(OC)c(OC)c(OC)c4)nc3N)n2)c1`, which inhibition at 0.15 µM is on record?
Answer: Its inhibition at 0.15 µM is 38%.

Question: Which inhibition at 0.15 µM does the source give for `COc1cc(Nc2nc(N)c(-c3nc(-c4cccc(NC(=O)C5C(C=C(C)C)C5(C)C)c4)cs3)s2)cc(OC)c1OC` (stereo not shown) here?
Answer: Its inhibition at 0.15 µM is 19%.

Question: Which inhibition at 0.15 µM does the source give for `COc1cc(Nc2nc(N)c(-c3nc(-c4cccc(NC(=O)c5ccc(C)c(Br)c5)c4)cs3)s2)cc(OC)c1OC` here?
Answer: The inhibition at 0.15 µM was 86%.

Question: Which inhibition at 0.15 µM does the source give for `COc1ccc(C(=O)Nc2cccc(-c3csc(-c4sc(Nc5cc(OC)c(OC)c(OC)c5)nc4N)n3)c2)cc1F` here?
Answer: Its inhibition at 0.15 µM is 51%.

Question: For `COc1cc(Nc2nc(N)c(-c3nc(-c4cccc(NC(=O)c5scc(S(=O)(=O)c6ccc(Cl)cc6)c5C)c4)cs3)s2)cc(OC)c1OC`, which inhibition at 0.15 µM is on record?
Answer: The inhibition at 0.15 µM was 10%.

Question: Which inhibition at 0.15 µM does the source give for `COc1cc(Nc2nc(N)c(-c3nc(-c4cccc(NC(=O)C5CCCC5)c4)cs3)s2)cc(OC)c1OC` here?
Answer: Its inhibition at 0.15 µM is 12%.

Question: For `CCOC(=O)/C=C/C(=O)Nc1cccc(-c2csc(-c3sc(Nc4cc(OC)c(OC)c(OC)c4)nc3N)n2)c1`, which inhibition at 0.15 µM is on record?
Answer: Its inhibition at 0.15 µM is 27%.

Question: For `COc1cc(Nc2nc(N)c(-c3nc(-c4cccc(NC(=O)Cc5cccc(C)c5)c4)cs3)s2)cc(OC)c1OC`, which inhibition at 0.15 µM is on record?
Answer: Its inhibition at 0.15 µM is 75%.

Question: `COc1cc(Nc2nc(N)c(-c3nc(-c4cccc(NC(=O)C5C6CC7C(C6=O)C75)c4)cs3)s2)cc(OC)c1OC` (stereo not shown) was tested. Which inhibition at 0.15 µM did it give?
Answer: Its inhibition at 0.15 µM is -6%.

Question: How did the inhibition at 0.15 µM turn out when `COc1cc(Nc2nc(N)c(-c3nc(-c4cccc(NC(=O)c5ccc6c(c5)OC(F)(F)O6)c4)cs3)s2)cc(OC)c1OC` was run?
Answer: The inhibition at 0.15 µM was 72%.

Question: For `COc1cc(Nc2nc(N)c(-c3nc(-c4cccc(NC(=O)C5CC(=O)N5)c4)cs3)s2)cc(OC)c1OC` (stereo not shown), which inhibition at 0.15 µM is on record?
Answer: Its inhibition at 0.15 µM is -2%.

Question: How did the inhibition at 0.15 µM turn out when `CCOC(=O)c1cc(C(=O)Nc2cccc(-c3csc(-c4sc(Nc5cc(OC)c(OC)c(OC)c5)nc4N)n3)c2)cc(C(=O)OCC)c1` was run?
Answer: The inhibition at 0.15 µM was 6%.

Question: How did the inhibition at 0.15 µM turn out when `COc1cc(Nc2nc(N)c(-c3nc(-c4cccc(NC(=O)c5cc6c(cc5C)C(C)(C)C(C)CC6(C)C)c4)cs3)s2)cc(OC)c1OC` (stereo not shown) was run?
Answer: Its inhibition at 0.15 µM is 7%.

Question: `COc1cc(Nc2nc(N)c(-c3nc(-c4cccc(NC(=O)c5ccc6c(c5)C(=O)N(C)C6=O)c4)cs3)s2)cc(OC)c1OC` was tested. Which inhibition at 0.15 µM did it give?
Answer: The inhibition at 0.15 µM was -3%.

Question: With `COc1cc(Nc2nc(N)c(-c3nc(-c4cccc(NC(=O)c5ccc6c(c5)C(=O)NC6=O)c4)cs3)s2)cc(OC)c1OC` as the compound, how does the inhibition at 0.15 µM read?
Answer: Its inhibition at 0.15 µM is -6%.

Question: For `COc1cc(Nc2nc(N)c(-c3nc(-c4cccc(NC(=O)C#Cc5ccccc5)c4)cs3)s2)cc(OC)c1OC`, which inhibition at 0.15 µM is on record?
Answer: The inhibition at 0.15 µM was -25%.

Question: Which inhibition at 0.15 µM does the source give for `COc1cc(Nc2nc(N)c(-c3nc(-c4cccc(NC(=O)Cc5ccccc5F)c4)cs3)s2)cc(OC)c1OC` here?
Answer: The inhibition at 0.15 µM was 21%.

Question: How did the inhibition at 0.15 µM turn out when `COc1cc(Nc2nc(N)c(-c3nc(-c4cccc(NC(=O)Cc5cccnc5)c4)cs3)s2)cc(OC)c1OC` was run?
Answer: Its inhibition at 0.15 µM is -20%.

Question: Which inhibition at 0.15 µM does the source give for `COc1cc(Nc2nc(N)c(-c3nc(-c4cccc(NC(=O)/C=C/c5ccccn5)c4)cs3)s2)cc(OC)c1OC` here?
Answer: Its inhibition at 0.15 µM is -7%.

Question: For `COc1cc(Nc2nc(N)c(-c3nc(-c4cccc(NC(=O)Cc5cc(F)ccc5F)c4)cs3)s2)cc(OC)c1OC`, which inhibition at 0.15 µM is on record?
Answer: The inhibition at 0.15 µM was 49%.

Question: With `COc1cccc(CC(=O)Nc2cccc(-c3csc(-c4sc(Nc5cc(OC)c(OC)c(OC)c5)nc4N)n3)c2)c1` as the compound, how does the inhibition at 0.15 µM read?
Answer: Its inhibition at 0.15 µM is 12%.

Question: With `COc1cc(Nc2nc(N)c(-c3nc(-c4cccc(NC(=O)Cc5cc(C)ccc5C)c4)cs3)s2)cc(OC)c1OC` as the compound, how does the inhibition at 0.15 µM read?
Answer: The inhibition at 0.15 µM was 12%.

Question: For `COc1cc(Nc2nc(N)c(-c3nc(-c4cccc(NC(=O)C5C[C@@H]6C=C[C@H]5C6)c4)cs3)s2)cc(OC)c1OC` (stereo partly shown), which inhibition at 0.15 µM is on record?
Answer: The inhibition at 0.15 µM was 37%.

Question: `COC(=O)c1cccc(C(=O)Nc2cccc(-c3csc(-c4sc(Nc5cc(OC)c(OC)c(OC)c5)nc4N)n3)c2)c1` was tested. Which inhibition at 0.15 µM did it give?
Answer: Its inhibition at 0.15 µM is 42%.

Question: `COC(=O)c1ccc(C(=O)Nc2cccc(-c3csc(-c4sc(Nc5cc(OC)c(OC)c(OC)c5)nc4N)n3)c2)nc1` was tested. Which inhibition at 0.15 µM did it give?
Answer: Its inhibition at 0.15 µM is 20%.

Question: With `COc1cc(Nc2nc(N)c(-c3nc(-c4cccc(NC(=O)c5c[nH]cn5)c4)cs3)s2)cc(OC)c1OC` as the compound, how does the inhibition at 0.15 µM read?
Answer: The inhibition at 0.15 µM was 15%.

Question: For `COc1cc(OC)cc(C(=O)Nc2cccc(-c3csc(-c4sc(Nc5cc(OC)c(OC)c(OC)c5)nc4N)n3)c2)c1`, which inhibition at 0.15 µM is on record?
Answer: Its inhibition at 0.15 µM is 51%.

Question: Which inhibition at 0.15 µM does the source give for `COc1cc(Nc2nc(N)c(-c3nc(-c4cccc(NC(=O)CCc5ccc(C)cc5)c4)cs3)s2)cc(OC)c1OC` here?
Answer: The inhibition at 0.15 µM was 25%.

Question: With `COc1cc(Nc2nc(N)c(-c3nc(-c4cccc(NC(=O)C5Cc6ccccc65)c4)cs3)s2)cc(OC)c1OC` (stereo not shown) as the compound, how does the inhibition at 0.15 µM read?
Answer: The inhibition at 0.15 µM was 56%.

Question: With `COc1cc(Nc2nc(N)c(-c3nc(-c4cccc(NC(=O)c5cc(C)cc(C)c5)c4)cs3)s2)cc(OC)c1OC` as the compound, how does the inhibition at 0.15 µM read?
Answer: Its inhibition at 0.15 µM is 78%.

Question: For `COc1cc(Nc2nc(N)c(-c3nc(-c4cccc(NC(=O)c5ccc(NC(C)=O)cc5)c4)cs3)s2)cc(OC)c1OC`, which inhibition at 0.15 µM is on record?
Answer: Its inhibition at 0.15 µM is 16%.

Question: With `COc1cc(Nc2nc(N)c(-c3nc(-c4cccc(NC(=O)c5ccc(C(C)(C)C)cc5)c4)cs3)s2)cc(OC)c1OC` as the compound, how does the inhibition at 0.15 µM read?
Answer: Its inhibition at 0.15 µM is 26%.

Question: For `COc1cc(Nc2nc(N)c(-c3nc(-c4cccc(NC(=O)c5ccc(C)cc5)c4)cs3)s2)cc(OC)c1OC`, which inhibition at 0.15 µM is on record?
Answer: The inhibition at 0.15 µM was 66%.

Question: How did the inhibition at 0.15 µM turn out when `COc1cc(Nc2nc(N)c(-c3nc(-c4cccc(NC(=O)CC(C)c5ccccc5)c4)cs3)s2)cc(OC)c1OC` (stereo not shown) was run?
Answer: Its inhibition at 0.15 µM is 26%.
